# Experimental data as given in patent US20220395487A1, “RIG-I INNATE IMMUNE RECEPTOR ANTAGONISTS AND METHODS OF USING SAME” (YALE UNIVERSITY, priority 2019, published 2022).
# Key:
# RIG-I [1] = target: T1, RIG-I (Homo sapiens, UniProt O95786); test: IFN-β/Firefly dual-luciferase reporter assay in HEK 293T cells transfected with hRIG-I; format: cell-based; conditions: HEK293T cells, SLR14 challenge
# T1 sequence (O95786 1-925): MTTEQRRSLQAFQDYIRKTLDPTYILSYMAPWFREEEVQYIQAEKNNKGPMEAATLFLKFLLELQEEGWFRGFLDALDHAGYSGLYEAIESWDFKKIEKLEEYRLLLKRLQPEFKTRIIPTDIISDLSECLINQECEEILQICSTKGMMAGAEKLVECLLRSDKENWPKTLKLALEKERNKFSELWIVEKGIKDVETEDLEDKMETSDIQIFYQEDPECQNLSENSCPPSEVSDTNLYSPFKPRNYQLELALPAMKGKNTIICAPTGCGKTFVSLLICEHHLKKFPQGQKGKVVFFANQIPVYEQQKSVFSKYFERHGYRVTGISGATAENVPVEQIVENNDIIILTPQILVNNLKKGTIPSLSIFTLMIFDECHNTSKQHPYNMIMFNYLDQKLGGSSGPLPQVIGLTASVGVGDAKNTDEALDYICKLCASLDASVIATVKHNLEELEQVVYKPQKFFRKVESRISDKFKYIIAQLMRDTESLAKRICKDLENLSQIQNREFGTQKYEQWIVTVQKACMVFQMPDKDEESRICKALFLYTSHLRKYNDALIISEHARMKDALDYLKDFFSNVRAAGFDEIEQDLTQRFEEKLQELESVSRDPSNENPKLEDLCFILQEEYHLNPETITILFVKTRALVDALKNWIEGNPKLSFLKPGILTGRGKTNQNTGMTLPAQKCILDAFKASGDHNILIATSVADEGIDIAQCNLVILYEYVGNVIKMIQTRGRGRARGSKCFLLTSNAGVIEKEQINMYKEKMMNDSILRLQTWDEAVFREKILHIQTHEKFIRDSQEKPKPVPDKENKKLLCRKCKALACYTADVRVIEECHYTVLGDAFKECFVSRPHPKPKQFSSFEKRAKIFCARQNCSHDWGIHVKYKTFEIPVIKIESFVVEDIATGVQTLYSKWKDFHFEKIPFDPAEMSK
# Description: Two different assays were used for evaluating RIG-I inhibition in cells. In the first assay, HEK 293T cells were used to test the influence of compounds on RIG-I signaling activity while simultaneously reporting on relative toxicity. In this case, inhibitor compounds were introduced via growth media replacement rather than by direct addition to cell plates. Specifically, HEK 293T cells (which express RIG-I only under the control of a transfected plasmid) were grown and maintained in T75 flasks containing Dulbecco's Modified Eagle Medium, DMEM (Life Technologies) supplemented with 10% heat-inactivated fetal bovine serum (Hyclone) and non-essential amino acids (Life Technologies). For the IFN-β induction assays, 0.5 ml of cells at 65,000 cells/ml was placed (seeded) in 24-well plates. After 24 h, each well of cells was transfected with 5 ng WT pUNO-hRIG-I (Invivogen), 6 ng pRL-TK constitutive Renilla luciferase reporter plasmid (Promega) and 150 ng of an IFN-β/Firefly luciferase reporter plasmid using the Lipofectamine 2000 transfection reagent (Life Technologies) following the manufacturer's protocol. Protein expression was allowed to proceed for 24 hours. In parallel, a six-point dilution series of each compound of interest was made in a DMSO vehicle and then diluted further into DMEM such that a constant DMSO concentration of 1% is maintained over the entire drug dilution. The DMEM growth media was aspirated from each well of cells and replaced with DMEM that contains the drug. After 30 minutes, the cells were challenged by transfection with 1 μg of the synthetic stem-loop RNA (SLR14) in Lipofectamine 2000. After 5-6 hours, cells were harvested for luminescence analysis in the following manner: Growth media was aspirated from each well, and 100 μl of passive lysis buffer (Promega) was added. Lysis proceeded for 15 min at room temperature. Lysates were clarified by centrifugation, and 20 μl samples of the supernatant were transferred to a 96-well assay plate for analysis using the Dual-Luciferase Reporter Assay System (Promega). Luminescence was measured using a Biotek Synergy H1 plate reader. The resulting Firefly luciferase activity (i.e. the induction of IFN-0) was normalized to the activity of the constitutively expressed Renilla luciferase to account for differences in confluency, transfection efficiency and cell viability across sample wells.
# RIG-I [2] = target: T1, RIG-I; test: qRT-PCR of IFN and ISG levels in A549 cells with endogenous RIG-I; format: cell-based; conditions: SLR14 challenge, qRT-PCR normalized to HPRT
# Description: In the second assay, inhibition of RIG-I that is endogenously expressed in A549 cells was evaluated by monitoring IFN and ISG levels by qRT-PCR. A549 cells were propagated in T75 flasks containing Dulbecco's Modified Eagle Medium, DMEM, (Life Technologies) supplemented with 10% heat-inactivated fetal bovine serum (Hyclone) and Non-Essential Amino Acids (Life Technologies). For the assay, 0.5 ml of cells at 100,000 cells/ml was seeded in 24-well plates. After 24 h, DMEM growth media was replaced with media containing drug, as described above for the IFN induction assay using HEK293T cells. After 30 minutes, the cells were transfected with 1 μg of the synthetic stem-loop RNA (SLR14), using the Lipofectamine 2000 transfection reagent. After 5-6 hours, cells were harvested and total RNA was isolated using E.Z.N.A total RNA isolation kit (Omega Bio-tek), following the manufacturer's instructions. Genomic DNA contamination was removed by DNase I treatment (Omega Bio-tek) directly on the Mini column. Total RNA was reverse-transcribed into cDNA using iScript Reverse Transcription Supermix (Bio-RAD) according to the manufacturer's instructions. […] Each sample was analyzed in triplicate and normalized to HPRT expression. Gene expression quantification was performed according to the Livak ΔΔCt method.
compound,measurement,setting,value
"CCC1(CC)C(=O)N=C2C1=C(OCc1ccccc1)C(=O)c1ccccc12 [RIG012, 4-Benzyloxy-3,3-diethyl-2H,3H,5H-benzo[g]indole-2,5-dione]","inhibition of RIG-I signaling / IFN induction, result in words",RIG-I [1],"potent, dose-dependent inhibition of RIG-I signaling"
same,IC50,"RIG-I [1]; compound in growth medium, read-out: IC50, inhibition of RIG-I signaling (IFN induction luciferase)",1.25 µM
same,effect on IFN-β and ISG hRsad2 expression,RIG-I [2],"potent, dose-dependent effect"
